# According to US5902794A (priority 1997, dated 1999):
# Entries after “also recorded” stand apart in the source; their conditions may differ. Where two headings read alike, the source gives them in different places.
# What was measured:
# [1] = system: MDA-MB-231 mammary carcinoma; assay: growth of MDA-MB-231 human mammary tumor xenograft; format: in vivo; details: 7 days, staging day
# Procedure: (§1) Based on the findings with the L1210 leukemia model, the efficacy of the 8-Cl-cAMP-Na+ infusions were evaluated in advanced-stage human tumor xenograft models. Tumor fragments of approximately 14 mg were implanted subcutaneously in athymic CD-1 female mice and seven day intraperitoneal infusions of the cyclic nucleotide were initiated three weeks later when mean tumor weights had reached 300-400 mg. Tumor measurements were recorded on the initial day of treatment (staging day) and one day after treatment was completed (staging day+7), and were used to calculate changes in tumor weights.
# (§2) *Mean tumor weight per group on staging day.
# (§3) $Mean tumor weight per group on staging day +7.
# (§4) **Change in *test tumor wt (finalinitial)/initial test tumor wt. Used
# (§5) where test tumor size was reduced during treatment. Denoted by negative
# (§6) $$Change in test tumor wt/change in control tumor wt. Used where test
# (§7) tumor size increased during treatment. Denoted by positive value.
# LX-1-Lung carcinoma = assay: growth of LX-1 human lung tumor xenograft; format: in vivo; details: 7 days, staging day
# Procedure: as §1, §2, §3
# (§8) **Change in test tumor wt (final initial)/initial test tumor wt. Used
# (§9) where tumor size was reduced during treatment. Denoted by negative value.
# as §6, §7
# [2] = system: two mammary, one lung, and one colon tumor; assay: human tumor xenografts in athymic mice; format: in vivo; details: seven day intraperitoneal infusions
# Procedure: as §1
# LOVO Colon carcinoma = assay: growth of LOVO human colon tumor xenograft; format: in vivo; details: 7 days; for Initial Mean Tumor Wt: staging day
# Procedure: as §1, §2, §3, §8, §9, §6, §7
# murine leukemia L1210 = assay: life span of L1210-inoculated BDF1 mice; format: in vivo, mouse; details: for toxicity remark: ip, 24-hr infusion, day 1-5
# Description: | Infusions by Harvard pumps.
# human LoVo colon tumors = assay: subcutaneous infusion in athymic NCR-NU mice bearing human LoVo colon tumors; format: in vivo; details: s.c. infusion approx. 42 mg/kg/day (1 mg/mouse), seven days
# [3] = lethality in non-tumored BDF1 mice, single i.p. injection; format: in vivo, mouse; details: qd, day 1; for Toxic deaths, No. killed/No. treated: ip
# Description: Influence of 8-Cl-cAMP-Na^+ on the life span of non-tumor
# BDF1 mice when delivered i.p. by bolus injection
# MX-1 mammary carcinoma = assay: growth of MX-1 human mammary tumor xenograft; format: in vivo; details: 7 days, staging day
# Procedure: as §1, §2, §3, §4, §5, §6, §7
# [4] = system: R^II cAMP receptor protein (MDA-MB-231); assay: photoaffinity labelling of R^II cAMP receptor protein, MDA-MB-231; format: cell-based, human; details: 1 mM, 3 days; relative to control R^I
# Procedure: (§10) M is marker proteins of known molecular weight.
# (§11) The incubations were carried out at 23° C. for 60 minutes in 96-well immunoplates. The reaction mixtures were then irradiated for 30 seconds at 254 nm, placing a Mineralite UVS-11 hand lamp directly onto the plate. The samples were mixed with 25 microliters of 3× sample buffer (3% SDS, 15% beta-mercaptoethanol, 30 mM Tris, 30% glycerol, 1% bromophenol blue saturated solution), boiled for 3 minutes, and centrifuged at 700×g for five minutes. The samples containing 50-100 micrograms of protein were subjected to 0.05% SDS-12% PAGE. The gels were fixed, dried, and exposed to X-ray films overnight. The protein concentrations were determined by the method of Lowry et al., (J. Biol. Chem. 193: 265-275, 1951) with bovine serum albumin as standard.
# (§12) The levels of the receptor proteins are expressed relative to the R^I level in the untreated control cells of MDA-MB-231 and LS-174T, which are each set equal to 1.0 O.D.; the scale was expanded to differentiate the lower intensity bands.
# [5] = system: R^I cAMP receptor protein (Molt-4); assay: R^I cAMP receptor protein in Molt-4 leukemic cells; format: cell-based, human; details: 1 mmol/L, three days
# Description: (§13) M marker proteins of known molecular weight. […] The resulting supernatants were used as cell lysates. […] ND=nondetectable.
# [6] = system: R^I cAMP receptor protein (MDA-MB-231); assay: photoaffinity labelling of R^I cAMP receptor protein, MDA-MB-231; format: cell-based, human; details: 1 mM, 3 days; control 1.0
# Procedure: as §10, §11, §12
# DMBA-1 = assay: growth of transplantable DMBA-1 rat mammary carcinoma; format: in vivo; details: pellet with 10 mg cAMP analogue, day 7
# Procedure: DMBA-1, a variant of primary hormonedependent DMBA tumor,
# hormoneindependent and transplantable.
# 8Cl-cAMP and DBcAMP were given as a 20mg pellet consisting of 10 mg of […]
# [7] = system: cultured human fibroblasts; details: cited from earlier work
# [8] = system: hormone-dependent breast cancer lines; details: millimolar concentrations; previously reported; cited from earlier work
# Molt-4 = assay: growth inhibition of Molt-4; format: cell-based, human
# [9] = system: R^I and R^II cAMP receptor proteins in breast (MDA-MB-231) and colon (LS-174T) cancer cells; assay: R^I and R^II cAMP receptor protein levels in breast and colon cancer lines (FIG. 6); format: cell-based, human; details: DBcAMP 1 mM
# Procedure: as §10, §11
# neuroblastoma cells = details: conflicting studies; cited from earlier work
# [10] = system: breast (MCF-7) and (LS-174T) colon cancer cell lines; assay: growth inhibition of breast (MCF-7) and colon (LS-174T) cancer cell lines; format: cell-based, human; details: 50 micromolar
# [11] = system: R^II cAMP receptor protein (LS-174T); assay: photoaffinity labelling of R^II cAMP receptor protein, LS-174T; format: cell-based, human; details: 1 mM, 3 days; relative to control R^I
# Procedure: as §10, §11, §12
# [12] = system: transplantable DMBA-1 and MNA-2 rat mammary carcinomas; assay: short-term assays with transplantable rat mammary carcinomas; format: in vivo; details: DB-cAMP pellet
# [13] = system: p21 ras protein (MCF-7 cells); assay: Western blotting of p21 ras protein in MCF-7 cells; format: cell-based, human; details: 500 microM
# Procedure: Western blotting of p21 protein was performed as described below. […] V is cell lysate from Ha-MuSV-transformed NIH3T3 clone 13-3B-4. M, marker proteins of known molecular weight.
# Cellular proteins present in cell extracts were separated by 12% SDS-PAGE and transferred to nitrocellulose sheets in transfer buffer (25 mM Tris, 192 mM glycine, 20% methanol, pH 7.4). Nitrocellulose sheets were washed and first incubated with 3% bovine serum albumin in NTE-NP40 (50 mM Tris-HCl, pH 7.5, 150 mM NaCl, 2 mM EDTA, 0.1% Nonidet P-40) for three hours at 37° C. and then sequentially incubated with medium containing p21 monoclonal antiserum Y13-259 directed against the Ha-MuSV-encoded p21 for sixteen hours at 4° C., rabbit anti-rat IgG for 2.5 hours in an ice-water bath, and 5×10^5 cpm/ml ^125 I-protein A for one hour in an ice-water bath. The nitrocellulose sheets were air-dried and exposed to Kodak XAR film for 12-36 hours at -20° C. Comparison of the resulting autoradiograms with others in which normal rat serum was substituted for p21 monoclonal antibody permitted identification of p21. To provide a reference p21, cell lysates were prepared from NIH 3T3 clone 13-3B-4 that had been transfected with Ha-MuSV DNA.
# The levels of p21 protein are expressed relative to the p21 level in the untreated control cells, which is set equal to 1.0 O.D.
# [14] = system: hormone-dependent mammary tumors / DMBA-induced mammary carcinomas; details: cited from earlier work
# c-myc protein = c-myc protein level, Western blotting (FIG. 9B); format: cell-based, human; details: 1 mmol/L, three days
# Procedure: The cells were grown in suspension culture in RPMI 1640 medium supplemented with 10% fetal bovine serum, penicillin (50 U/ml), streptomycin ([…]), 10 mmol/L HEPES buffer, and extra glutamine. […] Surface antigen analysis of HL-60 cells was performed by flow cytometry using a panel of monoclonal antibodies reactive with either myeloid cells or monocytic cells. Terminal deoxynucleotidyl transferase (TdT) was assayed by an immunoperoxidase method using a TdT fluorescence kit. Western blotting of c-myc protein was performed using c-myc antibody 15206D11 (Scripps Clinic and Research Foundation, LaJolla, Calif.).
# as §13
# LS-174T = assay: growth of LS-174T cells; format: cell-based; details: Homo sapiens, LS174T, 72 h; 1 mM, 3 days
# Procedure: as §10
# (§14) All breast cancer cell lines were grown in IMEM supplemented with 10% fetal bovine serum, 20 mM HEPES, penicillin-streptomycin, and extra glutamine. Colon carcinoma cell lines were grown in EMEM supplemented with 10% FBS, EMEM, NEAA, HEPES 20 mM, extra glutamine, and penicillin-streptomycin. The cells were grown at 37° C. in humidified incubators in an atmosphere of 5% CO2.
# (§15) For cell growth experiments, 2-3×10^5 cells/60 mm dish were seeded, and 24 hours later (Day 0), the medium was removed, and fresh medium and the additives were added then and every 48 hours thereafter The compounds of the present invention were added using 100× concentrated stock solutions. At desired times, cell counts in duplicate were performed on a Coulter counter after harvesting the cells with gentle trypsinization.
# MDA-MB-231 = assay: growth of MDA-MB-231 cells; format: cell-based; details: Homo sapiens, MDA-MB-231, 72 h; 1 mM, 3 days
# Procedure: as §10, §14, §15
# [15] = system: DMBA-induced mammary carcinomas; assay: in vivo growth of DMBA-induced mammary carcinomas in rats; design: species or system rat; details: DBcAMP treatment
# Procedure: […] |DMBA-induced mammary carcinomas in rats […] | 10 mg. cholesterol), was implanted on day 0 and day 14.
# [16] = system: spindle cell sarcoma with multiple metastasis; details: cited from earlier work
# [17] = system: human oat cell lung carcinoma cells; details: in vitro; cited from earlier work
# [18] = system: R^I cAMP receptor protein (LS-174T); assay: photoaffinity labelling of R^I cAMP receptor protein, LS-174T; format: cell-based, human; details: 1 mM, 3 days; control 1.0
# Procedure: as §10, §11, §12
smiles,measurement,setting,value
Nc1ncnc2c1nc(Cl)n2[C@@H]1O[C@@H]2COP(=O)(O)O[C@H]2[C@H]1O [8-Cl-cAMP-Na^+],Initial Mean Tumor Wt,[1]; 37 mg/kg/day ip infusion,367 mg
same,Initial Mean Tumor Wt,[1]; 62 mg/kg/day ip infusion,375 mg
same,Initial Mean Tumor Wt,[1]; 104 mg/kg/day ip infusion,367 mg
same,Initial Mean Tumor Wt,LX-1-Lung carcinoma; 37 mg/kg/day ip infusion,330 mg
same,Initial Mean Tumor Wt,LX-1-Lung carcinoma; 62 mg/kg/day ip infusion,327 mg
same,Initial Mean Tumor Wt,LX-1-Lung carcinoma; 104 mg/kg/day ip infusion,324 mg
same,"tumor growth during infusion, in words",[2],tumor stasis during treatment
same,% ΔT/T or % ΔT/ΔC,LOVO Colon carcinoma; 37 mg/kg/day ip infusion,-01%
same,Initial Mean Tumor Wt,LOVO Colon carcinoma; 37 mg/kg/day ip infusion,288 mg
same,% ΔT/T or % ΔT/ΔC,LOVO Colon carcinoma; 62 mg/kg/day ip infusion,-01%
same,Initial Mean Tumor Wt,LOVO Colon carcinoma; 62 mg/kg/day ip infusion,293 mg
same,Initial Mean Tumor Wt,LOVO Colon carcinoma; 104 mg/kg/day ip infusion,288 mg
same,mice killed (footnote),"murine leukemia L1210; 288 mg/kg, infused",2 to 5 mice
same,toxicity remark,murine leukemia L1210; 288 mg/kg/day,toxic
same,toxicity remark,murine leukemia L1210; 480 mg/kg/day,toxic
same,toxicity remark,murine leukemia L1210; 800 mg/kg/day,toxic
same,lethality (footnote),"murine leukemia L1210; 800 and 480 mg/kg, infused",lethally toxic for all treated mice
same,toxicity,human LoVo colon tumors,appeared to be toxic
same,"Toxic deaths, No. killed/No. treated",[3]; 22 mg/kg/inj,0
same,"Toxic deaths, No. killed/No. treated",[3]; 37 mg/kg/inj,0
same,"Toxic deaths, No. killed/No. treated",[3]; 62 mg/kg/inj,0
same,"Toxic deaths, No. killed/No. treated",[3]; 104 mg/kg/inj,0
same,mice killed (footnote),[3]; 173 mg/kg,2 of 5
same,"Toxic deaths, No. killed/No. treated",[3]; 173 mg/kg/inj,2/5
same,"Toxic deaths, No. killed/No. treated",[3]; 288 mg/kg/inj,5/5
same,"Toxic deaths, No. killed/No. treated",[3]; 480 mg/kg/inj,5/5
same,lethality (footnote),[3]; 480 and 288 mg/kg,lethally toxic for all treated mice
same,lethality (footnote),[3]; dosages lower than 173 mg/kg,not lethally
same,Initial Mean Tumor Wt,MX-1 mammary carcinoma; 62 mg/kg/day ip infusion,337 mg
same,Initial Mean Tumor Wt,MX-1 mammary carcinoma; 104 mg/kg/day ip infusion,346 mg
same,Initial Mean Tumor Wt,MX-1 mammary carcinoma; 173 mg/kg/day ip infusion,375 mg
"CCCC(=O)Nc1ncnc2c1ncn2[C@@H]1O[C@@H]2COP(=O)(O)O[C@H]2[C@H]1OC(=O)CCC [DBcAMP, N^6,O^2' -dibutyryl-cAMP]",R^II relative level,[4],0.07 ± 0.01
same,"R^I receptor protein, in words",[5],remained without appreciable change
same,R^I relative level,[6],1.0 ± 0.1
same,Change in mean tumor volume,DMBA-1,2.60 cm^3
same,Change in mean tumor volume (%),DMBA-1; none = 100,99%
same,DNA synthesis,[7]; added during first eight hours after serum addition,subsequent DNA synthesis was not delayed
same,DNA synthesis,[7]; added more than eight hours after serum addition,inhibitory
same,"growth inhibition, hormone-dependent breast cancer lines",[8],growth inhibition only in the hormone-dependent breast cancer lines
same,"50% growth inhibition, in words",Molt-4,50% growth inhibition could not be obtained
same,"R^I and R^II receptor levels, in words",[9],remained unchanged; also recorded: did not appreciably affect the R^I or R^II receptor levels
same,tumorigenicity,neuroblastoma cells,reported to be decreased; also recorded: unaltered
same,"growth inhibition, in words",[10],no growth inhibition
same,R^II relative level,[11],0.15 ± 0.02
same,sensitivity of tumors,[12],completely resistant
same,"p21 level, in words",[13],slight reduction in p21 level
same,cAMP binding and cAMP-dependent protein kinase activity,"[14]; cytosol and nuclei, during growth arrest",increase
same,estrogen binding,[14]; during growth arrest,estrogen binding decreases
same,translated p21 protein,[14]; preceding regression,sharp reduction
same,tumor regression,"[14]; rat, in vivo",regression of hormone-dependent mammary tumors
same,"c-myc protein level, in words",c-myc protein,did not affect the c-myc protein level
same,activity at 1000 µM,LS-174T,85%
same,activity at 1000 µM,MDA-MB-231,100%
same,"tumor growth, in words",[15],only arrests this tumor growth without producing regression
same,tumor size,"[16]; 3-6 mg/kg i.v. daily over five hours, days 1-9 and 47-56",plateaued and even decreased during both infusion periods
same,histology of tumors,"[16]; biopsies days 2, 14, 60",evidence of differentiation during the DBcAMP infusion
same,differentiation,[17],differentiated into neurone-like cells
same,R^I relative level,[18],0.80 ± 0.10
